Results on nine compounds are retold here after patent US7138428B2, “Compounds isolated from gamboge resin having activity in inhibiting the growth of tumor/cancer cells and pharmaceutical compositions comprising the same” (Taiwan Sunpan Biotechnology Development Company, Ltd., priority 2004, dated 2006).

One series relates to tumor/cancer cells. The series is described as follows: in vitro anti-cancer tests, overall statements. The conditions noted are these: summary of in vitro results. It is filed as cell-based, human.
Another series has as its system A549 (lung cancer). The series is described as follows: cells. The note with it: for IC50 (50% cell growth inhibition concentration) / LC50 (50% cell destroying lethal concentration): A549. The source says:
(§1) The cancer cell growth inhibition test was primarily used to detect the effect of a candidate drug on cancer cell proliferation. The working principle involved therein is the ability of viable cells to shift alamarBlue (Biosource, USA) from its originally non-fluorescent oxidized state to a reduced form (fluorescent, red) having fluorescence via metabolic reaction. According to the fluorescent data result generated by the alamarBlue reagent thus obtained, the proliferation of the viable cells and cell activity can be quantified for detection.
(§2) In this experiment, the assay concentrations of the candidate drug were set to be 0.01, 0.1, 1, 10, and 100 μg/ml, and the following cell lines were used: 6 human cancer cells MCF-7 (breast cancer), HT-29 (colon cancer), HL-60 (leukemia), HepG2 (liver cancer), A549 (lung cancer), and U937 (lymphoma cancer), and a normal human umbilical venal epithelial cell (HUVEC).
(§3) In order to further understand the bioactivity of the products TSB-0 to TSB-8 of this invention when they are used in combination, mixture formulations TSB-9, TSB-10, TSB-11, TSB-12 and TSB-13 were prepared according to Table 4 below.

In the next series the test system is HL-60 (leukemia). Put plainly: cells. The conditions noted are these: for IC50 (50% cell growth inhibition concentration) / LC50 (50% cell destroying lethal concentration): HL-60.
Source text: as §1, §2, §3

For a further series, the system named is HT-29 (colon cancer). The series is described as follows: cells. The conditions noted are these: for IC50 (50% cell growth inhibition concentration) / LC50 (50% cell destroying lethal concentration): HT-29.
Source text: as §1, §2, §3

In another series the test system is HepG2 (liver cancer). Put plainly: cells. The note with it: for IC50 (50% cell growth inhibition concentration) / LC50 (50% cell destroying lethal concentration): HepG2.
Source text: as §1, §2, §3

Another series concerns MCF-7 (breast cancer). The series is described as follows: cells. The conditions noted are these: for IC50 (50% cell growth inhibition concentration) / LC50 (50% cell destroying lethal concentration): MCF-7.
Source text: as §1, §2, §3

The next series concerns U937 (lymphoma cancer). Put plainly: cells. The note with it: for IC50 (50% cell growth inhibition concentration) / LC50 (50% cell destroying lethal concentration): U937.
Source text: as §1, §2, §3

Series [1] concerns normal human umbilical venal epithelial cell (HUVEC).
Source text: as §1, §2, §3

Series [2] can be described thus: body weights of tumor-bearing test animals. Type of series: in vivo, mice. The note with it: 2 mg/kg × 5. The protocol: Mixture formulation TSB-9 was further subjected to an animal test, in which female mice (6–8 weeks old, weighing 20–22 grams) originally from C.B-17/Icr background and having Severe Combined Immune Deficiency (SCID) were used.
Human breast cancer cells MCF-7 (ATCC HTB-22) (1×10^7 cells/0.2 ml) were implanted subcutaneously into the dorsal side of the mice, and 50 μg/mouse of estradiol benzoate (Sigma, USA) was injected subcutaneously into the mice weekly as supplement for a total of 4 weeks. When the tumor growth reached ≧5 mm in diameter (that very day was denoted as day 1), tumor-bearing nude mice were randomly divided into 4 groups (6 mice in each group).
Mixture formulation TSB-9 was dissolved in 10% DMSO, and was administered orally to the mice every day at two dosages 40 mg/kg and 80 mg/kg, respectively, for a total of 21 consecutive days. […] This treatment group served as a positive control.
Measurements were taken once every 4 days during the experiment periods, and were recorded.

With `C=C(C)[C@@H]1CC[C@]2(CO)CC[C@]3(C)[C@H](CC[C@@H]4[C@@]5(C)CC[C@H](O)C(C)(C)[C@@H]5CC[C@]43C)[C@@H]12` [TSB-0, betulin], the “effect of inhibiting tumor/cancer cell growth (in words)” value with tumor/cancer cells is “may not be as effective as products TSB-2 to TSB-8”.

For the compound `CC(C)=CCc1c2c(c(O)c3c1OC14C(=CC5CC1C(C)(C)OC4(C/C=C(\C)C(=O)O)C5=O)C3=O)C=CC(C)(C)O2` (stereo not shown) [TSB-2, isomorellic acid], the “IC50 (50% cell growth inhibition concentration)” value with A549 (lung cancer) amounted to 1.3 µg/mL; with HL-60 (leukemia), 2.3 µg/mL; in the series with HT-29 (colon cancer) it was 6.9 µg/mL; in the series on HepG2 (liver cancer) it was 6.4 µg/mL; in the series with MCF-7 (breast cancer), 9.0 µg/mL; in the series on U937 (lymphoma cancer), 1.6 µg/mL. In addition, the “IC50 (50% cell growth inhibition concentration)” value in series [1] was 1.7 µg/mL. Further, the “LC50 (50% cell destroying lethal concentration)” value with A549 (lung cancer) came out at 4.6 µg/mL; with HL-60 (leukemia), 43 µg/mL; with HT-29 (colon cancer), 12 µg/mL; in the series on HepG2 (liver cancer) it was 33 µg/mL; with MCF-7 (breast cancer) it was 24 µg/mL; in the series on U937 (lymphoma cancer), 6.1 µg/mL. For the same compound, in series [1], the “LC50 (50% cell destroying lethal concentration)” value was 22 µg/mL.

For the compound `CC(C)=CCC[C@]1(C)C=Cc2c(O)c3c(c(CC=C(C)C)c2O1)O[C@]12C(=C[C@@H]4C[C@H]1C(C)(C)O[C@@]2(C/C=C(\C)C(=O)O)C4=O)C3=O` [TSB-3, isogambogic acid], the “IC50 (50% cell growth inhibition concentration)” value in the series on A549 (lung cancer) turned out to be 0.88 µg/mL; with HL-60 (leukemia), 0.97 µg/mL; in the series with HT-29 (colon cancer) it was 6.4 µg/mL; with HepG2 (liver cancer) it was 1.2 µg/mL; in the series with MCF-7 (breast cancer), 1.6 µg/mL; in the series on U937 (lymphoma cancer), 0.82 µg/mL. Moreover, the “IC50 (50% cell growth inhibition concentration)” value in series [1] was found to be 1.1 µg/mL. Besides, the “LC50 (50% cell destroying lethal concentration)” value stood at 4.8 µg/mL in the series with A549 (lung cancer); 4.6 µg/mL in the series with HL-60 (leukemia); 8.8 µg/mL in the series with HT-29 (colon cancer); 1.9 µg/mL in the series on HepG2 (liver cancer); 4.3 µg/mL in the series with MCF-7 (breast cancer); 3.1 µg/mL in the series on U937 (lymphoma cancer). In series [1], the “LC50 (50% cell destroying lethal concentration)” value stood at 5.2 µg/mL.

For the compound `CC(C)=CCc1c(O)cc(O)c2c(=O)c3cc4c(c(O)c3oc12)OC(C)(C)C=C4` [TSB-4, 7,9,12-trihydroxy-2,2-dimethyl-10-(3-methyl-but-2-enyl)-2H-pyrano[3,2-b]xanthen-6-one], the CC50 was determined as 21 µg/mL with A549 (lung cancer) (Homo sapiens, A549, read-out: LC50 (50% cell destroying lethal concentration)); 42 µg/mL with HL-60 (leukemia) (Homo sapiens, HL-60, read-out: LC50 (50% cell destroying lethal concentration)); 59 µg/mL in the series on HT-29 (colon cancer) (Homo sapiens, HT-29, read-out: LC50 (50% cell destroying lethal concentration)); 24 µg/mL in the series on HepG2 (liver cancer) (Homo sapiens, HepG2, read-out: LC50 (50% cell destroying lethal concentration)); 40 µg/mL in the series with MCF-7 (breast cancer) (Homo sapiens, MCF7, read-out: LC50 (50% cell destroying lethal concentration)); 28 µg/mL with U937 (lymphoma cancer) (Homo sapiens, U-937, read-out: LC50 (50% cell destroying lethal concentration)). Moreover, in series [1], the “LC50 (50% cell destroying lethal concentration)” value worked out at 21 µg/mL.

Consider `CC(C)=CCC[C@]1(C)C=Cc2c(O)c3c(c(CC=C(C)C)c2O1)O[C@]12C(=C[C@@H]4C[C@H]1C(C)(C)O[C@@]2(C/C=C(/C)C(=O)O)C4=O)C3=O` [TSB-5, gambogic acid], for which the “IC50 (50% cell growth inhibition concentration)” value came out at 0.8 µg/mL with A549 (lung cancer); 0.50 µg/mL with HL-60 (leukemia); 4.5 µg/mL in the series with HT-29 (colon cancer); 0.83 µg/mL in the series on HepG2 (liver cancer); 0.83 µg/mL in the series on MCF-7 (breast cancer); 0.65 µg/mL in the series with U937 (lymphoma cancer). Moreover, the “IC50 (50% cell growth inhibition concentration)” value in [1] came to 0.87 µg/mL. Further, the “LC50 (50% cell destroying lethal concentration)” value in the series with A549 (lung cancer) turned out to be 2.9 µg/mL; in the series with HL-60 (leukemia), 5.2 µg/mL; in the series on HT-29 (colon cancer), 7.1 µg/mL; with HepG2 (liver cancer) it was 2.7 µg/mL; in the series with MCF-7 (breast cancer), 2.7 µg/mL; with U937 (lymphoma cancer), 3.1 µg/mL. In series [1], the “LC50 (50% cell destroying lethal concentration)” value stood at 3.6 µg/mL.

In the case of `CC(C)=CCc1c2c(c(O)c3c1OC14C(=CC5CC1C(C)(C)OC4(C/C=C(\C)CO)C5=O)C3=O)C=CC(C)(C)O2` (stereo not shown) [TSB-6, isomorellinol], the “IC50 (50% cell growth inhibition concentration)” value with A549 (lung cancer) came out at 2.0 µg/mL; in the series with HL-60 (leukemia) it was 1.4 µg/mL; in the series on HT-29 (colon cancer), 5.2 µg/mL; with HepG2 (liver cancer), 1.2 µg/mL; in the series on MCF-7 (breast cancer), 0.90 µg/mL; in the series with U937 (lymphoma cancer), 1.3 µg/mL. In addition, the “IC50 (50% cell growth inhibition concentration)” value in series [1] turned out to be 1.5 µg/mL. Further, the “LC50 (50% cell destroying lethal concentration)” value stood at 9.6 µg/mL in the series on A549 (lung cancer); 6.2 µg/mL with HL-60 (leukemia); 8.5 µg/mL with HT-29 (colon cancer); 3.0 µg/mL in the series with HepG2 (liver cancer); 5.8 µg/mL in the series with MCF-7 (breast cancer); 3.8 µg/mL with U937 (lymphoma cancer). Moreover, the “LC50 (50% cell destroying lethal concentration)” value in series [1] was found to be 9.3 µg/mL.

`CC(C)=CCc1c2c(c(O)c3c1O[C@]14C(=C[C@@H]5C[C@H]1C(C)(C)O[C@@]4(C/C=C(/C)C(=O)O)C5=O)C3=O)C=CC(C)(C)O2` [TSB-7, morellic acid]: the “IC50 (50% cell growth inhibition concentration)” value in the series on A549 (lung cancer) was determined as 0.76 µg/mL; in the series on HL-60 (leukemia) it was 1.2 µg/mL; with HT-29 (colon cancer), 2.8 µg/mL; in the series with HepG2 (liver cancer), 1.7 µg/mL; in the series on MCF-7 (breast cancer), 0.98 µg/mL; with U937 (lymphoma cancer), 1.6 µg/mL. Further, the “IC50 (50% cell growth inhibition concentration)” value in series [1] is 0.88 µg/mL. Further, the “LC50 (50% cell destroying lethal concentration)” value in the series with A549 (lung cancer) is 3.4 µg/mL; in the series on HL-60 (leukemia) it was 5.6 µg/mL; in the series on HT-29 (colon cancer) it was 7.2 µg/mL; in the series on HepG2 (liver cancer), 3.9 µg/mL; in the series on MCF-7 (breast cancer), 6.2 µg/mL; in the series on U937 (lymphoma cancer) it was 4.8 µg/mL. Further, in series [1], the “LC50 (50% cell destroying lethal concentration)” value worked out at 4.8 µg/mL.

As for `CC(C)=CCc1c2c(c(O)c3c1O[C@@]14C(=C[C@H]5CC1C(C)(C)O[C@]4(CC=C(C)C)C5=O)C3=O)C=CC(C)(C)O2` [TSB-8, desoxymorellin], the “IC50 (50% cell growth inhibition concentration)” value in the series on A549 (lung cancer) came out at 4.8 µg/mL; in the series with HL-60 (leukemia) it was 6.5 µg/mL; in the series with HT-29 (colon cancer) it was 6.7 µg/mL; in the series on HepG2 (liver cancer), 3.9 µg/mL; in the series on MCF-7 (breast cancer), 5.3 µg/mL; in the series on U937 (lymphoma cancer) it was 6.2 µg/mL. Besides, in series [1], the “IC50 (50% cell growth inhibition concentration)” value was found to be 2.8 µg/mL. In addition, the “LC50 (50% cell destroying lethal concentration)” value in the series on A549 (lung cancer) is 56 µg/mL; with HL-60 (leukemia), >100 µg/mL; in the series with HT-29 (colon cancer) it was 69 µg/mL; with HepG2 (liver cancer), 31 µg/mL; in the series with MCF-7 (breast cancer), 83 µg/mL; with U937 (lymphoma cancer), >100 µg/mL. In addition, the “LC50 (50% cell destroying lethal concentration)” value in series [1] amounted to 40 µg/mL.

Regarding `CO[C@@]12[C@H](COC(N)=O)C3=C(C(=O)C(C)=C(N)C3=O)N1C[C@@H]1N[C@@H]12` [mitomycin], the “Weight (g) (mean ± SEM)” value in series [2] (Day 1) was determined as 22.5 ± 0.6 g; in series [2] (Day 5), 20.8 ± 0.3 g; in series [2] (Day 9), 19.3 ± 0.4 g; in series [2] (Day 13) it was 19.2 ± 0.3 g; in series [2] (Day 17), 18.5 ± 0.2 g; in [2] (Day 21), 17.5 ± 0.2 g. Moreover, the “Weight (g) (mean ± SEM)” value amounted to 16.7 ± 0.2 g in [2] (Day 25) and 16.7 ± 0.4 g in series [2] (Day 29).
